Test results reported in EP0540099A1, “Water soluble camptothecin derivatives” (priority 1991, dated 1993).

System: HT-29 human colon tumor cells
Experiment: Human colorectal adenocarcinoma HT-29 xenograft in vivo assay
Details: female NU/NU mice; for in vivo Antitumor activity (tumor wt day-50/tumor wt day-14): HT-29 s.c. xenograft, optimal dose, subcutaneously twice a week for 5 weeks from day 14; for effect on tumor (stasis or regression): HT-29 xenograft, after 5 weeks of treatment (day 50), ratio of 1 = stasis, less than 1 = regression
Procedure: Female NU/NU mice weighing 21 ± 2g, are used for this modified version of the test described by B.C. Giovanella, et al., Science, 246 1046 (1989). Control and test animals are injected subcutaneously in the sub-scapular region with a suspension of 10⁶ viable HT-29 human colon tumor cells on day 0. Tumors are allowed to grow for 2 weeks prior to drug administration. For each drug, several doses are chosen based on its in vitro activity against topoisomerase I. Each dose level group contains 8 animals. The test compounds are prepared in either 0.1 M acetate buffer, pH 5 (vehicle "a") or 87.5% phosphate buffered saline, 12.375% dimethylsulfoxide, and 0.125% Tween 80 (trademark of ICI America for polyoxyethylenesorbitan monooleate) (vehicle "b") and are administered subcutaneously twice a week for 5 weeks beginning on day 14. Doses are given on a mg/kg basis according to the mean body weight for each cage.
Tumor weight is calculated from two perpendicular caliper measurements of the tumor using the formula, tumor weight = length x width² ÷ 2 [formula] in millimeters. For each animal, tumor weight is monitored over the course of the experiment. For each group, the results are expressed as the ratio of the mean tumor weight immediately after 5 weeks of treatment (day 50) divided by the mean tumor weight immediately before treatment (day 14). […] The criterion for antitumor activity is at least 50% inhibition of tumor growth after 5 weeks of dosing (day 50), giving a ratio of less than or equal to ten. TABLE B

[1] = vehicle b: 87.5% phosphate buffered saline, 12.375% dimethylsulfoxide, 0.125% Tween 80
[2] = vehicle a: 0.1 M acetate buffer, pH 5

Structure (SMILES): CC[C@@]1(O)C(=O)OCc2c1cc1n(c2=O)Cc2c-1nc1cc3c(cc1c2CN(C)C)OCO3 [Example 2, 7-Dimethylaminomethylene-10, 11-methylenedioxy-20(S)-camptothecin]
- in vivo Antitumor activity (tumor wt day-50/tumor wt day-14) [1]: 1.8^b

Structure (SMILES): CC[C@@]1(O)C(=O)OCc2c1cc1n(c2=O)Cc2c-1nc1cc3c(cc1c2CN1CCN(C)CC1)OCO3 [Example 23, 7-(4-Methylpiperazinomethylene)-10, 11-methylenedioxy-20(S)-camptothecin]
- in vivo Antitumor activity (tumor wt day-50/tumor wt day-14) [2]: 0.5^a
- effect on tumor (stasis or regression): tumor regression

Structure (SMILES): CC[C@@]1(O)C(=O)OCc2c1cc1n(c2=O)Cc2c-1nc1cc3c(cc1c2CN1CCC1)OCCO3 [Example 22, 7-Azetidinomethylene-10, 11-ethylenedioxy-20(S)-camptothecin]
- in vivo Antitumor activity (tumor wt day-50/tumor wt day-14) [2]: 1.6^a

Structure (SMILES): CC[C@@]1(O)C(=O)OCc2c1cc1n(c2=O)Cc2c-1nc1cc3c(cc1c2CN1CCN(C)CC1)OCCO3 [Example 11, 7-(4-methylpiperazinomethylene)-10, 11-ethylenedioxy-20(S)-camptothecin]
- in vivo Antitumor activity (tumor wt day-50/tumor wt day-14) [2]: 0.6^a
- effect on tumor (stasis or regression): tumor regression

Structure (SMILES): CC[C@@]1(O)C(=O)OCc2c1cc1n(c2=O)Cc2c-1nc1cc3c(cc1c2CN(C)C)OCCO3 [Example 4, 7-Dimethylaminomethylene-10, 11-ethylenedioxy-20(S)-camptothecin]
- effect on tumor (stasis or regression): tumor stasis

Structure (SMILES): CCN(CC)Cc1c2c(nc3cc4c(cc13)OCCO4)-c1cc3c(c(=O)n1C2)COC(=O)[C@]3(O)CC [Example 14, 7-Diethylaminomethylene-10, 11-ethylenedioxy-20(S)-camptothecin]
- in vivo Antitumor activity (tumor wt day-50/tumor wt day-14) [2]: 2.0^a

Structure (SMILES): CC[C@@]1(O)C(=O)OCc2c1cc1n(c2=O)Cc2c-1nc1cc3c(cc1c2CN1CCOCC1)OCCO3 [Example 6, 7-Morpholinomethylene-10, 11-ethylenedioxy-20(S)-camptothecin]
- in vivo Antitumor activity (tumor wt day-50/tumor wt day-14) [1]: 1.0^b
- effect on tumor (stasis or regression): tumor stasis

Structure (SMILES): CC[C@@]1(O)C(=O)OCc2c1cc1n(c2=O)Cc2c-1nc1cc3c(cc1c2CN1CCC1)OCO3 [Example 20, 7-Azetidinomethylene-10, 11-methylenedioxy-20(S)-camptothecin]
- in vivo Antitumor activity (tumor wt day-50/tumor wt day-14) [2]: 1.5^a
